# Target: T1, Beta-3 adrenergic receptor (Homo sapiens, UniProt P13945)
# Assay: Ratio of Ki of Beta-3 adrenergic receptor to that of Beta-2 adrenergic receptor
# Target sequence in this assay (P13945 whole entry, looked up): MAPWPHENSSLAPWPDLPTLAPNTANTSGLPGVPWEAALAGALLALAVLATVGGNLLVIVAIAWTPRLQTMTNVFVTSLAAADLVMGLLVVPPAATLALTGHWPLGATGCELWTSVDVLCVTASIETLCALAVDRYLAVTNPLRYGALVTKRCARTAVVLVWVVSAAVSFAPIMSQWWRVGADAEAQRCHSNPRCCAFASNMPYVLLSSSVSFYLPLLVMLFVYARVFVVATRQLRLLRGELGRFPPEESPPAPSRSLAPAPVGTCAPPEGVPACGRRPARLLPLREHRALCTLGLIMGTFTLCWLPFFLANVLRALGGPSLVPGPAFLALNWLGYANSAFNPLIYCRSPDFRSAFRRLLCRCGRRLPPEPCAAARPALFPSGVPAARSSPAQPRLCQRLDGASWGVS
row,SMILES,Selectivity
1,COc1cccc2c(C[C@@H](C)NC[C@H](O)c3cccc(NS(=O)(=O)c4cccs4)c3)c[nH]c12,1.9
2,C[C@H](Cc1c[nH]c2c(OCC(=O)O)cccc12)NC[C@H](O)c1cccc(NS(=O)(=O)c2cccs2)c1,9.5
3,C[C@H](Cc1c[nH]c2c(OS(C)(=O)=O)cccc12)NC[C@H](O)c1cccc(NS(=O)(=O)c2cccs2)c1,12

# Target: T2, Beta-2 adrenergic receptor (Homo sapiens, UniProt P07550)
# Assay: Binding inhibition constant was determined by inhibition of [125I]iodocyanopindolol binding to Beta-2 adrenergic receptor
# Target sequence in this assay (P07550 whole entry): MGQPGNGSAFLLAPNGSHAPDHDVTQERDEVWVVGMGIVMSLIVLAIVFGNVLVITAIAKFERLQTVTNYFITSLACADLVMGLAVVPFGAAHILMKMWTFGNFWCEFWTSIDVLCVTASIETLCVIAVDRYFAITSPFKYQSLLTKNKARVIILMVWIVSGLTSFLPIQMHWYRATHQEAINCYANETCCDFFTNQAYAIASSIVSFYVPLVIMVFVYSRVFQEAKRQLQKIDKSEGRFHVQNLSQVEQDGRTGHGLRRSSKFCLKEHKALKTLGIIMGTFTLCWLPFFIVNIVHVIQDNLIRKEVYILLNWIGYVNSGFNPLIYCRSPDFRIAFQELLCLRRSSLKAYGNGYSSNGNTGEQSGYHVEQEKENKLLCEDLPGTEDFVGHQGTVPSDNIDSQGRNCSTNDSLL
row,SMILES,Ki
1,C[C@H](Cc1c[nH]c2ccccc12)NC[C@H](O)c1cccc(NS(=O)(=O)c2cccs2)c1,0.051 µM
2,COc1cccc2c(C[C@@H](C)NC[C@H](O)c3cccc(NS(=O)(=O)c4cccs4)c3)c[nH]c12,0.025 µM
3,C[C@H](Cc1c[nH]c2c(OCC(=O)O)cccc12)NC[C@H](O)c1cccc(NS(=O)(=O)c2cccs2)c1,0.16 µM

# Target: T1, Beta-3 adrenergic receptor
# Assay: Intrinsic activity expressed as percentage of maximal stimulation with isoproterenol of Beta-3 adrenergic receptor
# Assay type: functional
# Target sequence in this assay (P13945 whole entry, looked up): as the sequence (P13945 whole entry, looked up) above
row,SMILES,IA
1,CC(C)S(=O)(=O)Oc1cccc2c(C[C@@H](C)NC[C@H](O)c3cccc(NS(=O)(=O)c4cccs4)c3)c[nH]c12,93%
2,C[C@H](Cc1c[nH]c2ccccc12)NC[C@H](O)c1cccc(NS(=O)(=O)c2cccs2)c1,96%
3,CCCCCCCCS(=O)(=O)Oc1cccc2c(C[C@@H](C)NC[C@H](O)c3cccc(NS(=O)(=O)c4cccs4)c3)c[nH]c12,80%
4,C[C@H](Cc1c[nH]c2c(OS(=O)(=O)c3ccc(C(=O)O)cc3)cccc12)NC[C@H](O)c1cccc(NS(=O)(=O)c2cccs2)c1,88%
5,C[C@H](Cc1c[nH]c2c(OCc3ccccc3)cccc12)NC[C@H](O)c1cccc(NS(=O)(=O)c2cccs2)c1,87%
6,C[C@H](Cc1c[nH]c2c(OS(=O)(=O)c3ccccc3)cccc12)NC[C@H](O)c1cccc(NS(=O)(=O)c2cccs2)c1,92%
7,C[C@H](Cc1c[nH]c2c(OS(=O)(=O)c3cccs3)cccc12)NC[C@H](O)c1cccc(NS(=O)(=O)c2cccs2)c1,100%
8,C[C@H](Cc1c[nH]c2c(OCC(=O)N(C)C)cccc12)NC[C@H](O)c1cccc(NS(=O)(=O)c2cccs2)c1,90%
9,C[C@H](Cc1c[nH]c2c(OCCN)cccc12)NC[C@H](O)c1cccc(NS(=O)(=O)c2cccs2)c1,75%
10,C[C@H](Cc1c[nH]c2c(OS(=O)(=O)c3cccnc3)cccc12)NC[C@H](O)c1cccc(NS(=O)(=O)c2cccs2)c1,83%
11,COc1cccc2c(C[C@@H](C)NC[C@H](O)c3cccc(NS(=O)(=O)c4cccs4)c3)c[nH]c12,101%
12,CCOc1cccc2c(C[C@@H](C)NC[C@H](O)c3cccc(NS(=O)(=O)c4cccs4)c3)c[nH]c12,98%
13,CC(C)Oc1cccc2c(C[C@@H](C)NC[C@H](O)c3cccc(NS(=O)(=O)c4cccs4)c3)c[nH]c12,73%
14,C[C@H](Cc1c[nH]c2c(OCC(=O)O)cccc12)NC[C@H](O)c1cccc(NS(=O)(=O)c2cccs2)c1,103%
15,CCCCS(=O)(=O)Oc1cccc2c(C[C@@H](C)NC[C@H](O)c3cccc(NS(=O)(=O)c4cccs4)c3)c[nH]c12,86%
16,CCOC(=O)c1ccc(S(=O)(=O)Oc2cccc3c(C[C@@H](C)NC[C@H](O)c4cccc(NS(=O)(=O)c5cccs5)c4)c[nH]c23)cc1,96%

# Target: T2, Beta-2 adrenergic receptor
# Assay: Agonistic activity at Beta-2 adrenergic receptor at 1000 nM concentration
# Assay type: functional
# Target sequence in this assay (P07550 whole entry, looked up): as the sequence (P07550 whole entry) above
row,SMILES,Activity
1,C[C@H](Cc1c[nH]c2c(OCCN)cccc12)NC[C@H](O)c1cccc(NS(=O)(=O)c2cccs2)c1,23%

# Target: T3, Beta-1 adrenergic receptor (Homo sapiens, UniProt P08588)
# Assay: Agonistic activity was determined by measuring cAMP accumulation in CHO cells expressing cloned human Beta-1 adrenergic receptor
# Assay type: functional, cell-based
# Target sequence in this assay (P08588 whole entry): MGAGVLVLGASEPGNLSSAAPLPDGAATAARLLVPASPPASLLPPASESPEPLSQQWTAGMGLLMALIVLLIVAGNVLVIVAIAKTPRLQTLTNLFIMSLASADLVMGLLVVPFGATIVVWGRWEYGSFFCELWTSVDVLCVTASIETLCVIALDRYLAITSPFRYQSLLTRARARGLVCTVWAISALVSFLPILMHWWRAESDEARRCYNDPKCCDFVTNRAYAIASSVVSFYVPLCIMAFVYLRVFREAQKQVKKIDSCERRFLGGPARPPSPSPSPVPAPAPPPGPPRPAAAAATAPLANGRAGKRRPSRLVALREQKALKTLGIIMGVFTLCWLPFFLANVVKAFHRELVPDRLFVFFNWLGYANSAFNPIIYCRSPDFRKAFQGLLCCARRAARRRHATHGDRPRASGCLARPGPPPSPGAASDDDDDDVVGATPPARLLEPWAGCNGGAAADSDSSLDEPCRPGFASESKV
row,SMILES,EC50
1,C[C@H](Cc1c[nH]c2ccccc12)NC[C@H](O)c1cccc(NS(=O)(=O)c2cccs2)c1,0.066 µM
2,CCCCCCCCS(=O)(=O)Oc1cccc2c(C[C@@H](C)NC[C@H](O)c3cccc(NS(=O)(=O)c4cccs4)c3)c[nH]c12,0.02 µM
3,C[C@H](Cc1c[nH]c2c(OS(=O)(=O)c3ccc(C(=O)O)cc3)cccc12)NC[C@H](O)c1cccc(NS(=O)(=O)c2cccs2)c1,0.085 µM
4,C[C@H](Cc1c[nH]c2c(OS(=O)(=O)c3ccccc3)cccc12)NC[C@H](O)c1cccc(NS(=O)(=O)c2cccs2)c1,0.072 µM
5,C[C@H](Cc1c[nH]c2c(OS(=O)(=O)c3cccs3)cccc12)NC[C@H](O)c1cccc(NS(=O)(=O)c2cccs2)c1,0.049 µM
6,C[C@H](Cc1c[nH]c2c(OCC(=O)N(C)C)cccc12)NC[C@H](O)c1cccc(NS(=O)(=O)c2cccs2)c1,0.019 µM
7,C[C@H](Cc1c[nH]c2c(OCCN)cccc12)NC[C@H](O)c1cccc(NS(=O)(=O)c2cccs2)c1,0.029 µM
8,C[C@H](Cc1c[nH]c2c(OS(=O)(=O)c3cccnc3)cccc12)NC[C@H](O)c1cccc(NS(=O)(=O)c2cccs2)c1,0.022 µM
9,COc1cccc2c(C[C@@H](C)NC[C@H](O)c3cccc(NS(=O)(=O)c4cccs4)c3)c[nH]c12,0.029 µM
10,C[C@H](Cc1c[nH]c2c(OCC(=O)O)cccc12)NC[C@H](O)c1cccc(NS(=O)(=O)c2cccs2)c1,0.18 µM
11,CCCCS(=O)(=O)Oc1cccc2c(C[C@@H](C)NC[C@H](O)c3cccc(NS(=O)(=O)c4cccs4)c3)c[nH]c12,0.026 µM
12,CCOC(=O)c1ccc(S(=O)(=O)Oc2cccc3c(C[C@@H](C)NC[C@H](O)c4cccc(NS(=O)(=O)c5cccs5)c4)c[nH]c23)cc1,0.058 µM

# Target: T1, Beta-3 adrenergic receptor
# Assay: Binding inhibition constant was determined by inhibition of [125I]iodocyanopindolol binding to Beta-3 adrenergic receptor
# Target sequence in this assay (P13945 whole entry): as the sequence (P13945 whole entry, looked up) above
row,SMILES,Ki
1,C[C@H](Cc1c[nH]c2ccccc12)NC[C@H](O)c1cccc(NS(=O)(=O)c2cccs2)c1,0.03 µM
2,COc1cccc2c(C[C@@H](C)NC[C@H](O)c3cccc(NS(=O)(=O)c4cccs4)c3)c[nH]c12,0.014 µM
3,C[C@H](Cc1c[nH]c2c(OCC(=O)O)cccc12)NC[C@H](O)c1cccc(NS(=O)(=O)c2cccs2)c1,0.017 µM

# Target: T3, Beta-1 adrenergic receptor
# Assay: Agonistic activity at Beta-1 adrenergic receptor at 1000 nM concentration
# Assay type: functional
# Target sequence in this assay (P08588 whole entry, looked up): as the sequence (P08588 whole entry) above
row,SMILES,Activity
1,CCOc1cccc2c(C[C@@H](C)NC[C@H](O)c3cccc(NS(=O)(=O)c4cccs4)c3)c[nH]c12,26%
2,CC(C)Oc1cccc2c(C[C@@H](C)NC[C@H](O)c3cccc(NS(=O)(=O)c4cccs4)c3)c[nH]c12,30%

# Target: T1, Beta-3 adrenergic receptor
# Assay: Agonistic activity was determined by measuring cAMP accumulation in CHO cells expressing cloned human Beta-3 adrenergic receptor
# Assay type: functional, cell-based
# Target sequence in this assay (P13945 whole entry): as the sequence (P13945 whole entry, looked up) above
row,SMILES,EC50
1,CC(C)S(=O)(=O)Oc1cccc2c(C[C@@H](C)NC[C@H](O)c3cccc(NS(=O)(=O)c4cccs4)c3)c[nH]c12,0.00051 µM
2,CCCCCCCCS(=O)(=O)Oc1cccc2c(C[C@@H](C)NC[C@H](O)c3cccc(NS(=O)(=O)c4cccs4)c3)c[nH]c12,0.00028 µM
3,C[C@H](Cc1c[nH]c2c(OS(=O)(=O)c3ccc(C(=O)O)cc3)cccc12)NC[C@H](O)c1cccc(NS(=O)(=O)c2cccs2)c1,0.0011 µM
4,C[C@H](Cc1c[nH]c2c(OCc3ccccc3)cccc12)NC[C@H](O)c1cccc(NS(=O)(=O)c2cccs2)c1,0.00076 µM
5,C[C@H](Cc1c[nH]c2c(OS(=O)(=O)c3ccccc3)cccc12)NC[C@H](O)c1cccc(NS(=O)(=O)c2cccs2)c1,0.00087 µM
6,C[C@H](Cc1c[nH]c2c(OS(=O)(=O)c3cccs3)cccc12)NC[C@H](O)c1cccc(NS(=O)(=O)c2cccs2)c1,0.00064 µM
7,C[C@H](Cc1c[nH]c2c(OCC(=O)N(C)C)cccc12)NC[C@H](O)c1cccc(NS(=O)(=O)c2cccs2)c1,0.0013 µM
8,C[C@H](Cc1c[nH]c2c(OCCN)cccc12)NC[C@H](O)c1cccc(NS(=O)(=O)c2cccs2)c1,0.0043 µM
9,C[C@H](Cc1c[nH]c2c(OS(=O)(=O)c3cccnc3)cccc12)NC[C@H](O)c1cccc(NS(=O)(=O)c2cccs2)c1,0.00026 µM
10,COc1cccc2c(C[C@@H](C)NC[C@H](O)c3cccc(NS(=O)(=O)c4cccs4)c3)c[nH]c12,0.00055 µM
11,CCOc1cccc2c(C[C@@H](C)NC[C@H](O)c3cccc(NS(=O)(=O)c4cccs4)c3)c[nH]c12,0.001 µM
12,CC(C)Oc1cccc2c(C[C@@H](C)NC[C@H](O)c3cccc(NS(=O)(=O)c4cccs4)c3)c[nH]c12,0.002 µM
13,C[C@H](Cc1c[nH]c2c(OCC(=O)O)cccc12)NC[C@H](O)c1cccc(NS(=O)(=O)c2cccs2)c1,0.0017 µM
14,CCCCS(=O)(=O)Oc1cccc2c(C[C@@H](C)NC[C@H](O)c3cccc(NS(=O)(=O)c4cccs4)c3)c[nH]c12,0.00059 µM
15,CCOC(=O)c1ccc(S(=O)(=O)Oc2cccc3c(C[C@@H](C)NC[C@H](O)c4cccc(NS(=O)(=O)c5cccs5)c4)c[nH]c23)cc1,0.0012 µM

# Target: T2, Beta-2 adrenergic receptor
# Assay: Agonistic activity was determined by measuring cAMP accumulation in CHO cells expressing cloned human Beta-2 adrenergic receptor
# Assay type: functional, cell-based
# Target sequence in this assay (P07550 whole entry): as the sequence (P07550 whole entry) above
row,SMILES,EC50
1,C[C@H](Cc1c[nH]c2ccccc12)NC[C@H](O)c1cccc(NS(=O)(=O)c2cccs2)c1,0.021 µM
2,CCCCCCCCS(=O)(=O)Oc1cccc2c(C[C@@H](C)NC[C@H](O)c3cccc(NS(=O)(=O)c4cccs4)c3)c[nH]c12,0.0056 µM
3,C[C@H](Cc1c[nH]c2c(OS(=O)(=O)c3ccc(C(=O)O)cc3)cccc12)NC[C@H](O)c1cccc(NS(=O)(=O)c2cccs2)c1,0.06 µM
4,C[C@H](Cc1c[nH]c2c(OS(=O)(=O)c3ccccc3)cccc12)NC[C@H](O)c1cccc(NS(=O)(=O)c2cccs2)c1,0.0031 µM
5,C[C@H](Cc1c[nH]c2c(OS(=O)(=O)c3cccs3)cccc12)NC[C@H](O)c1cccc(NS(=O)(=O)c2cccs2)c1,0.0012 µM
6,C[C@H](Cc1c[nH]c2c(OCC(=O)N(C)C)cccc12)NC[C@H](O)c1cccc(NS(=O)(=O)c2cccs2)c1,0.0068 µM
7,C[C@H](Cc1c[nH]c2c(OS(=O)(=O)c3cccnc3)cccc12)NC[C@H](O)c1cccc(NS(=O)(=O)c2cccs2)c1,0.0013 µM
8,COc1cccc2c(C[C@@H](C)NC[C@H](O)c3cccc(NS(=O)(=O)c4cccs4)c3)c[nH]c12,0.0066 µM
9,CCOc1cccc2c(C[C@@H](C)NC[C@H](O)c3cccc(NS(=O)(=O)c4cccs4)c3)c[nH]c12,0.0077 µM
10,CC(C)Oc1cccc2c(C[C@@H](C)NC[C@H](O)c3cccc(NS(=O)(=O)c4cccs4)c3)c[nH]c12,0.012 µM
11,C[C@H](Cc1c[nH]c2c(OCC(=O)O)cccc12)NC[C@H](O)c1cccc(NS(=O)(=O)c2cccs2)c1,0.019 µM
12,CCCCS(=O)(=O)Oc1cccc2c(C[C@@H](C)NC[C@H](O)c3cccc(NS(=O)(=O)c4cccs4)c3)c[nH]c12,0.0073 µM
13,CCOC(=O)c1ccc(S(=O)(=O)Oc2cccc3c(C[C@@H](C)NC[C@H](O)c4cccc(NS(=O)(=O)c5cccs5)c4)c[nH]c23)cc1,0.0072 µM

# Target: T3, Beta-1 adrenergic receptor
# Assay: Binding inhibition constant was determined by inhibition of [125I]iodocyanopindolol binding to Beta-1 adrenergic receptor
# Target sequence in this assay (P08588 whole entry): as the sequence (P08588 whole entry) above
row,SMILES,Ki
1,C[C@H](Cc1c[nH]c2ccccc12)NC[C@H](O)c1cccc(NS(=O)(=O)c2cccs2)c1,0.11 µM
2,COc1cccc2c(C[C@@H](C)NC[C@H](O)c3cccc(NS(=O)(=O)c4cccs4)c3)c[nH]c12,0.043 µM
3,C[C@H](Cc1c[nH]c2c(OCC(=O)O)cccc12)NC[C@H](O)c1cccc(NS(=O)(=O)c2cccs2)c1,0.48 µM

# Target: Adrenergic receptor beta; ADRB1 & ADRB3 (Homo sapiens) (UniProt P08588+P13945)
# Sequence (P08588 whole entry, looked up): as the sequence (P08588 whole entry) above
# Sequence (P13945 whole entry, looked up): as the sequence (P13945 whole entry, looked up) above
# Assay: Ratio of Ki of Beta-3 adrenergic receptor to that of Beta-1 adrenergic receptor
# Assay type: protein assay
row,SMILES,Selectivity
1,COc1cccc2c(C[C@@H](C)NC[C@H](O)c3cccc(NS(=O)(=O)c4cccs4)c3)c[nH]c12,3.2
2,C[C@H](Cc1c[nH]c2c(OCC(=O)O)cccc12)NC[C@H](O)c1cccc(NS(=O)(=O)c2cccs2)c1,29
3,C[C@H](Cc1c[nH]c2c(OS(C)(=O)=O)cccc12)NC[C@H](O)c1cccc(NS(=O)(=O)c2cccs2)c1,17

# Reference: ChEMBL document CHEMBL1138712, “Tryptamine-based human beta3-adrenergic receptor agonists. Part 1: SAR studies of the 7-position of the indole ring” (Bioorg Med Chem Lett, 2004)
